Tests used:
hTERT [1] = target: T1, hTERT (Homo sapiens, UniProt O14746); test: RT-TRAP with recombinant telomerase ([…]); assay type: biochemical; parameters: gene TERT
hTERT [2] = target: T1, hTERT; test: RT-TRAP and direct telomerase assay with reconstituted purified hTERT + hTR; preincubation with hTERT vs hTR; dilution (reversibility) test; assay type: biochemical; parameters: gene TERT; MBP-hTERT, purified from P. pastoris

T1 sequence (O14746 whole entry): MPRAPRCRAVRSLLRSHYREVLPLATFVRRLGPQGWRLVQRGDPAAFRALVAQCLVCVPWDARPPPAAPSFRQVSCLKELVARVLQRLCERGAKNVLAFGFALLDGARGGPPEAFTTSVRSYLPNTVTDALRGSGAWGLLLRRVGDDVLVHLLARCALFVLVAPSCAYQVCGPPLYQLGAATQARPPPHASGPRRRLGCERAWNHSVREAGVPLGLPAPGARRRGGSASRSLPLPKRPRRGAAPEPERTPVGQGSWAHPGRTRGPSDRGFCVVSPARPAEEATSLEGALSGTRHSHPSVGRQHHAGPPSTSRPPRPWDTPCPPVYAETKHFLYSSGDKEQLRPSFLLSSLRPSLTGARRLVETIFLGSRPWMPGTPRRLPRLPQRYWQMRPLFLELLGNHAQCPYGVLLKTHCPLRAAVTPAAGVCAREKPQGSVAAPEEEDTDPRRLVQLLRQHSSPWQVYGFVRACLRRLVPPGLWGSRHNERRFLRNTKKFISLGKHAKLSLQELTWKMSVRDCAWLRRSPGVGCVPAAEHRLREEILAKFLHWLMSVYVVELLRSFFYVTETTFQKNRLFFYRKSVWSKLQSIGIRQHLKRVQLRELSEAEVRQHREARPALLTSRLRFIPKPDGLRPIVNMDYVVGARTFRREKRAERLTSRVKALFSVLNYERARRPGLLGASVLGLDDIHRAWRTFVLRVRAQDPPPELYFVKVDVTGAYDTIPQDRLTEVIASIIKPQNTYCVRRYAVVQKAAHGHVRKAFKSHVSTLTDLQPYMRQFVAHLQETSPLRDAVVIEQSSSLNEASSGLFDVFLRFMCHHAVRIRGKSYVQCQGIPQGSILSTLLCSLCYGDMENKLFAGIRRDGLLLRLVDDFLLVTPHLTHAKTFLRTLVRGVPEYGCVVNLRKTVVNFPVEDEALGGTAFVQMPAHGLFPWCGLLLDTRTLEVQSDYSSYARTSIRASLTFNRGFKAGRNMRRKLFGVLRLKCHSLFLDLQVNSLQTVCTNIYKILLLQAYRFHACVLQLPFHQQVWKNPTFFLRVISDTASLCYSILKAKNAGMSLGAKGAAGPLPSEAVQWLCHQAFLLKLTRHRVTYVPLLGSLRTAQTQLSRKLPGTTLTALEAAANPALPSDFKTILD

IC50 (hTERT [1])	IC50 (hTERT [2])	Compound
~80 nM	–	C/C(=C\C(=O)Nc1ccccc1C(=O)O)c1ccc2ccccc2c1 [BIBR1532]
–	500 ± 200 nM	NC1CC(N)C(O[C@H]2O[C@H](CNC(=O)[C@@H](N)CCCCNCc3ccc4nc5ccc6nc7ccccc7cc6c5cc4c3)[C@@H](O)C[C@H]2N)C(O)C1O[C@H]1O[C@H](CO)[C@@H](O)[C@H](N)[C@H]1O (some centres unmarked) [TAI1]
